Measured values published in ChEMBL document CHEMBL5143597, “Design and synthesis of novel spirocyclic carboxylic acids as potent and orally bioavailable DGAT1 inhibitors and their biological evaluation” (Bioorg Med Chem Lett, 2022).
Each block holds one compound with its values, some of them ahead of it.

What was measured:
[1] = Metabolic stability in rat liver microsomes assessed as parent compound remaining at 1 uM and measured at 30 mins by LC-MS/MS analysis; format: ADME, Microsome; conditions: read-out: Stability
[2] = Metabolic stability in mouse liver microsomes assessed as parent compound remaining at 1 uM and measured at 30 mins by LC-MS/MS analysis; format: ADME, Microsome; conditions: read-out: Stability
[3] = Metabolic stability in human liver microsomes assessed as parent compound remaining at 1 uM and measured at 30 mins by LC-MS/MS analysis; format: ADME, Microsome; conditions: read-out: Stability
CYP2D6 = CYP2D6 (Homo sapiens, UniProt P10635); test: Inhibition of recombinant human CYP2D6 at 25 uM by fluorescence plate reader analysis; format: ADME
Chain of CYP2D6 (P10635 whole entry): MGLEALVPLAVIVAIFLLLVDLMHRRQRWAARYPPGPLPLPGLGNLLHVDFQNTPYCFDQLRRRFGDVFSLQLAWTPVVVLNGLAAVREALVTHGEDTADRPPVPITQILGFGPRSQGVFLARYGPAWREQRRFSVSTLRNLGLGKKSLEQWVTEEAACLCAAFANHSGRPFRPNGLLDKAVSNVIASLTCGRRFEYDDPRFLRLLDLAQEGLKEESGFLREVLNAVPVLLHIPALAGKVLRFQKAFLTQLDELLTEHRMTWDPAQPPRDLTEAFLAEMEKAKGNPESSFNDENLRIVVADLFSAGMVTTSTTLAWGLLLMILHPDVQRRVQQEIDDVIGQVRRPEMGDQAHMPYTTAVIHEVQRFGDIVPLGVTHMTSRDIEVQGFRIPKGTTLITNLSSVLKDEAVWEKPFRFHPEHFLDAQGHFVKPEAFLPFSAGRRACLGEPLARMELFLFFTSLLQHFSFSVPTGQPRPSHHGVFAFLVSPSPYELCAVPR

hERG (KCNH2) = hERG (KCNH2) (Homo sapiens, UniProt Q12809); test: Displacement of [3H]astemizole from human ERG expressed in HEK293 cell membrane at 30 uM for 2 hrs by Radiometric displacement assay; format: toxicity; conditions: HEK293 cell membranes that express hERG, probe [3H]astemizole
Chain of hERG (KCNH2) (Q12809 whole entry): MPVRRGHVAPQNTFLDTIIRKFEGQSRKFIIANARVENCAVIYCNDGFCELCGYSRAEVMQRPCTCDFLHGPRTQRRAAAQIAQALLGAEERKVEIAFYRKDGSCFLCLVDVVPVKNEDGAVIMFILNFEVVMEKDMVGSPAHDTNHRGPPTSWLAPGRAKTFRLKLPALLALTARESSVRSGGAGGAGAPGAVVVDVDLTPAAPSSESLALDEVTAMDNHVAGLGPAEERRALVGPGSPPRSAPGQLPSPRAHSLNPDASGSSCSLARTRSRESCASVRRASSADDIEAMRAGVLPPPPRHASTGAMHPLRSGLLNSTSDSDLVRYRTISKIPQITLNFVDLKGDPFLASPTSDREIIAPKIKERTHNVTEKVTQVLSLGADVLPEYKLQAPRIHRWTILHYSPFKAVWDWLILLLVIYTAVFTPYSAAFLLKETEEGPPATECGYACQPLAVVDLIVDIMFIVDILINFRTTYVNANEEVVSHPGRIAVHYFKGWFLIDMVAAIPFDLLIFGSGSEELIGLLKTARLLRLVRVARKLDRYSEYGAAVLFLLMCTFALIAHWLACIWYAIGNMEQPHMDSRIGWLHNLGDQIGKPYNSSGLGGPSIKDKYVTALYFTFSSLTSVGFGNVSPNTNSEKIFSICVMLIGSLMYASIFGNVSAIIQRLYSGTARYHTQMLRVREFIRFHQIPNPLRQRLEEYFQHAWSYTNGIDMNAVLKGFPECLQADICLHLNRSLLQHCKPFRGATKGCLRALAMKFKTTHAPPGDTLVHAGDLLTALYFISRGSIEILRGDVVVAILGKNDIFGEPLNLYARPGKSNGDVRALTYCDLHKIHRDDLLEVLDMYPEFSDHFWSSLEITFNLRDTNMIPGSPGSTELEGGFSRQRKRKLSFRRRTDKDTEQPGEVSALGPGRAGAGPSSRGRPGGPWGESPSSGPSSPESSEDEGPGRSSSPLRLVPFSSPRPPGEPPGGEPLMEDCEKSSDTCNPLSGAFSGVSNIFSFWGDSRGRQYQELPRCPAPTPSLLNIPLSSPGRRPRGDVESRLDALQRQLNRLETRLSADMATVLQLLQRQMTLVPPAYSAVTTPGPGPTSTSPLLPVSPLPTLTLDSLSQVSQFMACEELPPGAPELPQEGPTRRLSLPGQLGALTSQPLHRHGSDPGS

[4] = Plasma protein binding in rat; format: ADME, cell-free; conditions: read-out: PPB
[5] = Plasma protein binding in mouse; format: ADME, cell-free; conditions: read-out: PPB (converted)
[6] = Clearance in C57BL/6 mouse at 3 mg/kg, iv or 10 mg/kg, po and measured up to 24 hrs by LC-MS/MS analysis; format: ADME, organism-based; conditions: in vivo
[7] = Apparent permeability across apical to basolateral side in MDCK cells at 2.5 uM for 90 mins; format: ADME, cell-based, Canis lupus familiaris; conditions: dog
[8] = Volume of distribution at steady state in C57BL/6 mouse at 3 mg/kg, iv or 10 mg/kg, po and measured up to 24 hrs by LC-MS/MS analysis; format: ADME, organism-based; conditions: in vivo, read-out: Vdss
[9] = AUC in C57BL/6 mouse at 3 mg/kg, iv or 10 mg/kg, po and measured up to 24 hrs by LC-MS/MS analysis; format: ADME, organism-based; parameters: time < 24 hrs, dose 3 mg/kg, route iv; conditions: in vivo
[10] = Cmax in C57BL/6 mouse at 3 mg/kg, iv or 10 mg/kg, po and measured up to 24 hrs by LC-MS/MS analysis; format: ADME, organism-based; parameters: dose 3 mg/kg, time < 24 hrs, route iv; conditions: in vivo
[11] = Tmax in C57BL/6 mouse at 3 mg/kg, iv or 10 mg/kg, po and measured up to 24 hrs by LC-MS/MS analysis; format: ADME, organism-based; conditions: in vivo
[12] = Half life in C57BL/6 mouse at 3 mg/kg, iv or 10 mg/kg, po and measured up to 24 hrs by LC-MS/MS analysis; format: ADME, organism-based; conditions: in vivo
[13] = Oral bioavailability in C57BL/6 mouse 10 mg/kg or 3 mg/kg, iv and measured up to 24 hrs by LC-MS/MS analysis; format: ADME, organism-based; conditions: in vivo
[14] = Volume of distribution at steady state in Wistar rat at 3 mg/kg, iv or 10 mg/kg, po and measured up to 24 hrs by LC-MS/MS analysis; format: ADME, organism-based; conditions: in vivo, read-out: Vdss
[15] = Clearance in Wistar rat at 3 mg/kg, iv or 10 mg/kg, po and measured up to 24 hrs by LC-MS/MS analysis; format: ADME, organism-based; conditions: in vivo
[16] = AUC in Wistar rat at 3 mg/kg, iv or 10 mg/kg, po and measured up to 24 hrs by LC-MS/MS analysis; format: ADME, organism-based; parameters: dose 3 mg/kg, time < 24 hrs, route iv; conditions: in vivo
[17] = Cmax in Wistar rat at 3 mg/kg, iv or 10 mg/kg, po and measured up to 24 hrs by LC-MS/MS analysis; format: ADME, organism-based; parameters: dose 3 mg/kg, time < 24 hrs, route iv; conditions: in vivo
[18] = Tmax in Wistar rat at 3 mg/kg, iv or 10 mg/kg, po and measured up to 24 hrs by LC-MS/MS analysis; format: ADME, organism-based; conditions: in vivo
[19] = Half life in Wistar rat at 3 mg/kg, iv or 10 mg/kg, po and measured up to 24 hrs by LC-MS/MS analysis; format: ADME, organism-based; conditions: in vivo
[20] = Oral bioavailability in Wistar rat at 10 mg/kg or 3 mg/kg, iv and measured up to 24 hrs by LC-MS/MS analysis; format: ADME, organism-based; conditions: in vivo
[21] = Drug distribution in C57BL/6 mouse plasma 10 mg/kg, po and measured at 1 hrs post dose by LC-MS/MS analysis; format: ADME, organism-based
[22] = Drug distribution in C57BL/6 mouse plasma 10 mg/kg, po and measured at 2 hrs post dose by LC-MS/MS analysis; format: ADME, organism-based
[23] = Drug distribution in C57BL/6 mouse plasma 10 mg/kg, po and measured at 8 hrs post dose by LC-MS/MS analysis; format: ADME, organism-based
[24] = Drug distribution in C57BL/6 mouse adipose tissue 10 mg/kg, po and measured at 1 hrs post dose by LC-MS/MS analysis; format: ADME, organism-based; conditions: read-out: Ct
[25] = Drug distribution in C57BL/6 mouse adipose tissue 10 mg/kg, po and measured at 2 hrs post dose by LC-MS/MS analysis; format: ADME, organism-based; conditions: read-out: Ct
[26] = Drug distribution in C57BL/6 mouse adipose tissue 10 mg/kg, po and measured at 8 hrs post dose by LC-MS/MS analysis; format: ADME, organism-based; conditions: read-out: Ct
[27] = Drug distribution in C57BL/6 mouse liver 10 mg/kg, po and measured at 1 hrs post dose by LC-MS/MS analysis; format: ADME, organism-based; conditions: read-out: Ct
[28] = Drug distribution in C57BL/6 mouse liver 10 mg/kg, po and measured at 2 hrs post dose by LC-MS/MS analysis; format: ADME, organism-based; conditions: read-out: Ct
[29] = Drug distribution in C57BL/6 mouse liver 10 mg/kg, po and measured at 8 hrs post dose by LC-MS/MS analysis; format: ADME, organism-based; conditions: read-out: Ct
[30] = Drug distribution in C57BL/6 mouse skeletal muscle 10 mg/kg, po and measured at 1 hrs post dose by LC-MS/MS analysis; format: ADME, organism-based, Skeletal muscle tissue; conditions: read-out: Ct
[31] = Drug distribution in C57BL/6 mouse skeletal muscle 10 mg/kg, po and measured at 2 hrs post dose by LC-MS/MS analysis; format: ADME, organism-based, Skeletal muscle tissue; conditions: read-out: Ct
[32] = Drug distribution in C57BL/6 mouse skeletal muscle 10 mg/kg, po and measured at 8 hrs post dose by LC-MS/MS analysis; format: ADME, organism-based, Skeletal muscle tissue; conditions: read-out: Ct
[33] = Drug distribution in C57BL/6 mouse brain 10 mg/kg, po and measured at 1 hrs post dose by LC-MS/MS analysis; format: ADME, organism-based; conditions: read-out: Ct
CYP1A2 = biological target: T1, CYP1A2 (Homo sapiens, UniProt P05177); test: Inhibition of recombinant human CYP1A2 at 25 uM by fluorescence plate reader analysis; format: ADME
T1 sequence (P05177 whole entry): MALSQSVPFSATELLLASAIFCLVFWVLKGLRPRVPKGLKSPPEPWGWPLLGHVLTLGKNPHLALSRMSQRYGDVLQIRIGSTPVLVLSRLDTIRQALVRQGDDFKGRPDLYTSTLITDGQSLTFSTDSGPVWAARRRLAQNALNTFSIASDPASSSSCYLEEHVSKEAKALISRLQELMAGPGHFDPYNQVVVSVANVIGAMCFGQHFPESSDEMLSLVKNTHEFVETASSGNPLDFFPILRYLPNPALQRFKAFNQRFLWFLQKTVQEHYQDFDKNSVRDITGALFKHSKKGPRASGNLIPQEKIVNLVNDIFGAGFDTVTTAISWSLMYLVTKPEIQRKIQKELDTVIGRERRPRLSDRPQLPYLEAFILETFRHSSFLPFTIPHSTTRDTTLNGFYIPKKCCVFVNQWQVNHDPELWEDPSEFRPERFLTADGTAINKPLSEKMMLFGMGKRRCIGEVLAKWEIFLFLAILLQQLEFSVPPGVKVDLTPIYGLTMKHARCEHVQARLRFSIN

CYP3A4 = CYP3A4 (Homo sapiens, UniProt P08684); test: Inhibition of recombinant human CYP3A4 at 25 uM by fluorescence plate reader analysis; format: ADME
Chain of CYP3A4 (P08684 whole entry): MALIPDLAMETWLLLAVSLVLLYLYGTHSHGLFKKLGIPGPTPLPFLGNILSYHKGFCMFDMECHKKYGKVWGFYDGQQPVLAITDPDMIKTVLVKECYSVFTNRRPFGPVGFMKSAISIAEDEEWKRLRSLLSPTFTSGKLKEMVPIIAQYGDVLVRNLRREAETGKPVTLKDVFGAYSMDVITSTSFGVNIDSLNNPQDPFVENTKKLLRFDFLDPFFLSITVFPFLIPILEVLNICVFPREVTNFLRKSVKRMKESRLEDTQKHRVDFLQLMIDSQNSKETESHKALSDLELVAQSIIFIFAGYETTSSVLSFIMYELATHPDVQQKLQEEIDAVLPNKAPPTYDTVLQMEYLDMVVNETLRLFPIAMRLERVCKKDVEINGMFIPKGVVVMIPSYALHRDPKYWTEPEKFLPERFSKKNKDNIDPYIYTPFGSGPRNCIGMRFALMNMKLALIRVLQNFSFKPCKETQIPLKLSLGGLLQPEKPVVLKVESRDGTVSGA

[34] = Solubility of compound in PBS at pH 2 incubated for 4 hrs under shaking condition by UV absorbance based analysis; format: physicochemical
[35] = Solubility of compound in PBS at pH 4 incubated for 4 hrs under shaking condition by UV absorbance based analysis; format: physicochemical
[36] = Solubility of compound in PBS at pH 7.4 incubated for 4 hrs under shaking condition by UV absorbance based analysis; format: physicochemical
[37] = Solubility of compound in PBS at pH 9 incubated for 4 hrs under shaking condition by UV absorbance based analysis; format: physicochemical

remaining at 0.5 h, 1 µM [1]: 100% | remaining at 0.5 h, 1 µM [2]: 96% | remaining at 0.5 h, 1 µM [3]: 95% | inhibition at 25 µM (CYP2D6): 10% | fraction unbound [4]: 0.01 | fraction unbound [5]: 0.02 | clearance [6]: 34 mL/min/kg | Papp A→B at 1.5 h, 2.5 µM [7]: 4.9 ×10⁻⁶ cm/s | Vd [8]: 4.4 L/kg | AUC at 24 h [9]: 2.8 µM·h | Cmax [10]: 1400 nM | Tmax [11]: 0.25 h | half-life [12]: 3.6 h | bioavailability [13]: 30% | Vd [14]: 0.53 L/kg | clearance [15]: 6.2 mL/min/kg | AUC at 24 h [16]: 17 µM·h | Cmax [17]: 14000 nM | Tmax [18]: 1 h | half-life [19]: 3.6 h | bioavailability [20]: 100% | concentration at 1 h [21]: 5900 nM | concentration at 2 h [22]: 1660 nM | concentration at 8 h [23]: 360 nM | concentration at 1 h [24]: 470 nM | concentration at 2 h [25]: 350 nM | concentration at 8 h [26]: 130 nM | concentration at 1 h [27]: 142000 nM | concentration at 2 h [28]: 71600 nM | concentration at 8 h [29]: 17800 nM | concentration at 1 h [30]: 160 nM | concentration at 2 h [31]: 60 nM | concentration at 8 h [32]: 30 nM | concentration at 1 h [33]: 20 nM
SMILES: O=C(Nc1ccc(C2CCC3(CC2)CC(C(=O)O)C3)cc1)c1nnc(Nc2ccc(F)c(F)c2)o1 (stereo unspecified)
inhibition at 2 h, 30 µM (hERG (KCNH2)): 16%

inhibition at 25 µM (CYP1A2): 12% | inhibition at 25 µM (CYP3A4): 10% | solubility at 4 h [34]: 179 µM | solubility at 4 h [35]: 36 µM | solubility at 4 h [36]: 1060 µM | solubility at 4 h [37]: 723 µM
SMILES: O=C(Nc1ccc(N2CCC3(CC2)CC(C(=O)[O-])C3)nc1)c1nnc(Nc2ccc(F)c(F)c2)o1.[Na+]
